{
  "source": "patent US20250288570A1",
  "about": "“TREATMENT OF NEUROLOGICAL DISORDERS” (Praxis Precision Medicines, Inc., priority 2022, published 2025)",
  "key": {"[1]": {"biological_target": "T1, human Nav1.6 (Homo sapiens, UniProt Q9UQD0)", "T1 construct": "HEK-293 cell lines stably expressing human Nav1.6 (NP_055006) were used; expressed in transfected cells", "T1 sequence (Q9UQD0 whole entry)": "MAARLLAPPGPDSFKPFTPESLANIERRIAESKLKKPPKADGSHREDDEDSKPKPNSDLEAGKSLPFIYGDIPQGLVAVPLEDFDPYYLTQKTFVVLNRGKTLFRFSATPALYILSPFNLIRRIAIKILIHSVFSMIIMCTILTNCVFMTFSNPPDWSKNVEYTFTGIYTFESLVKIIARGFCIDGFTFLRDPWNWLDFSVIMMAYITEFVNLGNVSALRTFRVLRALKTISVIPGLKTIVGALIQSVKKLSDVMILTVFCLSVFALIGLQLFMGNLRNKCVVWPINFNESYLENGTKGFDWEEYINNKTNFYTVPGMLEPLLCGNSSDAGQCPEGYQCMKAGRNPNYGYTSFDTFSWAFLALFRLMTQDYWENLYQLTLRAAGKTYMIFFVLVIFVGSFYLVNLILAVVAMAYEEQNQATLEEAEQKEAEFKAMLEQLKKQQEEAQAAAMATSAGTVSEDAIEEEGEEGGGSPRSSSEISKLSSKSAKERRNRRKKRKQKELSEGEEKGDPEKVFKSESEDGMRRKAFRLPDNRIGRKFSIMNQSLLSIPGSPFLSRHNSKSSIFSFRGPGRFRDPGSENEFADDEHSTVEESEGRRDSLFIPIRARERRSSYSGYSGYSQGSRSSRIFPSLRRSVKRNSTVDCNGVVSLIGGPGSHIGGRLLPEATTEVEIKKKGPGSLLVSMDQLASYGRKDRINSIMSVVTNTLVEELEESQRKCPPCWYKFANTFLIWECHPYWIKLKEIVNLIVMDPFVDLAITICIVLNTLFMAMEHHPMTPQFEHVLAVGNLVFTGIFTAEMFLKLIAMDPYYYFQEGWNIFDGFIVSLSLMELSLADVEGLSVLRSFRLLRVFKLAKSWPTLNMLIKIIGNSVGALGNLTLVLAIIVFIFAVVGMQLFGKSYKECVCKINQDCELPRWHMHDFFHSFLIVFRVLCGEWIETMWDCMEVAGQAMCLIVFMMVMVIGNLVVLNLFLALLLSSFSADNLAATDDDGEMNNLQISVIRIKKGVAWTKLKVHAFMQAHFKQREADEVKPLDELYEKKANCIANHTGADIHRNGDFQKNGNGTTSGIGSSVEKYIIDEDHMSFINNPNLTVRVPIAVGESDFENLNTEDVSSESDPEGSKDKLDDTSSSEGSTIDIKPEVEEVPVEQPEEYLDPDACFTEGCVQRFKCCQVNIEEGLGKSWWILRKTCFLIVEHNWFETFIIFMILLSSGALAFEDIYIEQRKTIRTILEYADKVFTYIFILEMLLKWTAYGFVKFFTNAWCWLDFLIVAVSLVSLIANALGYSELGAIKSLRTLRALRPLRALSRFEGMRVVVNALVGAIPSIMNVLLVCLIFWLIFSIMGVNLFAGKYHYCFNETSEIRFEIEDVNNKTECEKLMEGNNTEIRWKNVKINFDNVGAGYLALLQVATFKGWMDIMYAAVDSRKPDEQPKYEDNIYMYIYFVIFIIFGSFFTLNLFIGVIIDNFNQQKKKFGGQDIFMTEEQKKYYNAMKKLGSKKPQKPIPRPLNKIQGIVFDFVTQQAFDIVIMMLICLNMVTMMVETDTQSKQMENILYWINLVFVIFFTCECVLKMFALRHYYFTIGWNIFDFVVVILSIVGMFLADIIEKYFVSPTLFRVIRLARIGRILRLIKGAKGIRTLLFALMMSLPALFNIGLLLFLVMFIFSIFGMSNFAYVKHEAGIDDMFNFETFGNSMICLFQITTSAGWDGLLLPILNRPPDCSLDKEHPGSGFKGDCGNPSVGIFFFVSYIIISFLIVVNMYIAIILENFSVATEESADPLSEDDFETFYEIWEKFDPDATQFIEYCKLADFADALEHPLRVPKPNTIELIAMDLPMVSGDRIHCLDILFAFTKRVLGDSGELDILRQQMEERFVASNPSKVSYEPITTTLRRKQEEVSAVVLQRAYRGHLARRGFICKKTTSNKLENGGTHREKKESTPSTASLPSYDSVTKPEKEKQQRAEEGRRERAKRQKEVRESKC", "experiment": "Peak INa tonic block (TB), automated patch clamp in HEK cells", "format": "cell-based", "settings": "ratio of peak INa (TB) to persistent INa IC50"}, "[2]": {"biological_target": "T1, human Nav1.6", "experiment": "ATX-II activated late (persistent) INa block, automated patch clamp in HEK cells", "format": "cell-based"}, "[3]": {"tested_on": "multiple NaV isoforms and orthologs", "experiment": "ATX-II induced persistent INa of multiple NaV isoforms and orthologs", "format": "cell-based"}, "[4]": {"tested_on": "psychomotor seizures induced by 6-Hz electrical stimulation in CD-1 mice", "experiment": "6-Hz psychomotor seizure model (32 and 44 mA)", "format": "in vivo, mouse", "from_the_text": "The 6-Hz test is a validated model of focal seizures for evaluating the anti-seizure potential of compounds. The 6-Hz seizure model can be performed at different stimulation intensities (32 or 44 mA), with the higher intensity (44 mA) used as a model of pharmacoresistant seizures. The positive control valproate is an approved anti-seizure medicine (ASM).\nThis study evaluated the efficacy of Compound 1 in attenuating psychomotor seizures induced by 6-Hz electrical stimulation at two different stimulation intensities (32 and 44 mA) in wild-type CD-1 mice. Psychomotor seizures are defined as the expression of at least one of the following behaviors: stun/immobility, forelimb clonus, straub tail or lateral head movement within 30 seconds of the stimulus. Protection is defined as a complete absence of the above behaviors within 30 seconds of the stimulus. Doses of Compound 1 used were 1 mg/kg, 3 mg/kg and 6 mg/kg administered orally. Valproate (600 mg/kg, administered intraperitoneally) was used as a positive control.\nMale CD-1 mice (Charles River Laboratories; St. Constant, Quebec, CAN) were used for the study. Body weights at the time the experiment was carried out were 30-40 grams. The mice were group-housed in polycarbonate cages according to standard operating procedures. Animals were maintained on a 12-hour light/12 hour dark cycle, with all experimental activities occurring during the light phase. Food and water were available ad libitum. Mice acclimated to the test facility for at least 72 hours prior to testing.\nTreatment was conducted using Compound 1 and 35% 2-hydroxypropyl-β-cyclodextrin (35% HPBCD, used as a negative control). Compound 1 stock solution was prepared fresh each experiment day in 35% HPBCD. […] Valproate was prepared fresh each experiment day in a vehicle of saline and dosed at 10 mL/kg.\nMice were administered vehicle (35% HPBCD), a single dose of Compound 1 (1 mg/kg, 3 mg/kg or 6 mg/kg) or valproate (600 mg/kg). Vehicle and Compound 1 were administered via oral gavage 30 minutes prior to […]. Valproate was administered as an intraperitoneal injection 60 minutes prior to the electrical stimulus.\nImmediately prior to conducting the 6-Hz seizure test, a brief neurological assessment was performed. Each animal was visually assessed and received a score from 0 to 3 according to the following scoring system: neurological score of 0 corresponds to a normal status; neurological score of 1 corresponds to a modest decrease in spontaneous activity; neurological score of 2 corresponds to a marked decrease in spontaneous activity; and neurological score of 3 corresponds to loss of righting reflex.\nCorneal electrodes moistened with saline (ECT unit 57800; Ugo Basile) were used to deliver the electrical stimulus (6-Hz, 0.2 millisecond pulse width, 3 seconds duration). The current delivered was either 32 mA or 44 mA. Immediately after the electrical stimulus, each mouse was monitored continuously for 30 seconds by an observer blinded to the treatment group. […] Mice were scored for the presence or absence of each seizure behavior, with a maximum total score of 4. […] At the end of the 6-Hz seizure test, plasma and brain samples were collected.\nMice were anesthetized with isoflurane, whole blood was collected via cardiac puncture and brains were harvested. […] Plasma and brain samples were stored at −80° C. and analyzed to determine levels of Compound 1. […]"}},
  "note": "“Also recorded” adds a separate entry of the source.",
  "data": [
    {"smiles": "CCOC(F)(F)c1nnc2ccc(-c3cnc(OCC(F)(F)F)c(F)c3)cn12", "note": "[Compound 1]", "values": [
      {"measurement": "Peak INa TB Ratio to Pers. INa", "setting": "[1]", "result": 68},
      {"measurement": "persistent INa preference to TB", "setting": "[2]", "result": 68, "unit": "×"},
      {"measurement": "potency for persistent INa relative to the other tested INa blocking agents", "setting": "[2]", "result": "at least 550 ×"},
      {"measurement": "inhibition of and preference for persistent INa (in words)", "setting": "[2]; hNav1.6", "result": "concentration dependent inhibition of late sodium current; also recorded: preference for persistent INa relative to peak INa for all assay conditions; also recorded: potently inhibited ATX-II-induced persistent INa; also recorded: potent inhibition of persistent INa; also recorded: potent inhibitor of persistent INa; also recorded: increased potency for persistent INa relative to standard NaV-targeting ASMs"},
      {"measurement": "Persistent INa Hill slope", "setting": "[2]; hNav1.6 in HEK cells", "result": "(1.4)"},
      {"measurement": "inhibition of persistent INa at other isoforms and orthologs (in words)", "setting": "[3]", "result": "inhibits ATX-II induced persistent INa expressed by multiple NaV isoforms and orthologs"},
      {"measurement": "seizure score (in words)", "setting": "[4]; 6 mg/kg p.o., 32 and 44 mA", "result": "significantly reduced the seizure score; also recorded: reduced seizure scores compared to vehicle"},
      {"measurement": "incidence of seizures (in words)", "setting": "[4]; 6 mg/kg p.o., 32 mA", "result": "significantly reduced the incidence of seizures"},
      {"measurement": "neurological scores", "setting": "[4]; any dose of Compound 1 (1, 3, 6 mg/kg)", "result": "all neurological scores were zero; also recorded: normal"}
    ]}
  ]
}
